Each structure is given as a SMILES string.

With `COC(=O)c1cc(COC(C)=O)cc(-n2cccc2C#N)c1`, the melting point fell in the range of 85 to 86 °C. As for `O=C1CNc2ncc(I)cc2N1Cc1cccnc1Cl`, the melting point turned out to be 249 °C. To `ON=CC12CCCN(CCC1)C2` belongs 115 to 117 °C; to `CCc1cc(OC)cc(C(=O)O)c1C(=O)OC`, 116 to 118 °C. Turning to `CCc1nc2cnc3ccccc3c2n1CC(C)C`, the melting point lay within 72 to 73.5 °C.

Regarding `CCOC(=O)C1=C[C@@H](OC(CC)CC)[C@@H](NC(C)=O)[C@H](N=[N+]=[N-])[C@@H]1O`, the melting point lay in the range of 112 to 115 °C. The value for `CN(C)Cc1nc(-c2ncn3c2[C@@H]2CCN2C(=O)c2c-3ccc(F)c2Cl)no1` was 166 to 169 °C; that for `COc1cc2c(c3oc(C(=O)O)cc(=O)c13)CCC(C)(C)O2` was 225 to 226 °C. To `Cc1nn(-c2ccccn2)c2ncc(C(=O)c3ccccc3)c(Cl)c12` belongs 177 to 178 °C. `O=C(O)c1cc([N+](=O)[O-])c(F)c(F)c1F` displayed a melting point of 128 to 129 °C. `c1ccc(Oc2ccc(OCc3nc(C4CC4)no3)cc2)cc1` yielded a melting point of 99 °C. Regarding `CC(C)=NOCc1nc2c(N)nc(C)c(C)c2n1CCCCNC(=O)c1ccccc1`, the melting point is 206 to 208 °C. The value for `COC(C)(CC(=O)Nc1ccccc1)OC` was 80 °C; that for `Cn1nc(-c2ccccc2)cc1Cl` was 61 to 62 °C.

Consider `Clc1ccc(C2=CCN(Cc3coc4ncccc34)CC2)cc1`, for which the melting point is 116 °C. In turn, `Cc1ccccc1C(=O)c1[nH]c2cc(Cl)ccc2c1CC(=O)O` came in with a melting point of 150 to 152 °C. As to `CCOC(=O)C(NC(C)=O)C(=O)CCCCc1ccccc1` (centres undefined), the melting point was 54 to 55 °C. For `CCCCCCCCS(=O)(=O)CC(CS(=O)(=O)c1ccc(OC)cc1)C(=O)NO` (centres undefined), the melting point stood at 134 °C. The value for `Clc1ncc(OCc2ccccc2)c2ccccc12` was 97 to 98 °C; that for `CC(C)NC(=O)c1nc(-c2cccc(Cl)c2)c(-c2ccc(=O)n(C(C)C)n2)s1` was 105 to 106 °C; that for `Cc1cc(S(=O)(=O)NCc2ccccc2)c2c(C)ccc(C(C)C)cc1-2` was 124 to 126 °C.

For `COc1cc(N)c(I)cc1C(=O)O`, the melting point was 181 °C. The value for `CC1CS/C(=N/N=C\c2ccc(-c3ncn(-c4ccc(OC(F)(F)F)cc4)n3)cc2)N(c2ccccc2C(C)C)C1` (centres undefined) was 186 to 190 °C; that for `Cn1ncnc1COc1nc2c(cc1C(C)(C)C)nnn2-c1ccccc1` was 165 to 167 °C; that for `Cn1cc(Oc2ccccc2)c(=O)c(-c2ccc(Cl)c(C(F)(F)F)c2)c1` was 130 to 131 °C. To `Cc1ccc2c(c1)C(C(=O)Nc1ccccc1C(C)C)c1ccccc1CO2` (centres undefined) belongs 180 to 181 °C; to `CCOCC(=O)c1nc2c(Cl)cc(F)c(-n3c(=O)cc(C(F)(F)F)n(C)c3=O)c2o1`, 56 to 58 °C; to `Cc1sc(N2C(=O)c3ccccc3C2=O)c(C(=O)c2ccc(Cl)cc2)c1CN1CCN(c2ccc(F)cc2)CC1`, 110 to 112 °C.

In turn, `Clc1ccc2c(c1)oc1cc(OCCCBr)ccc12` returned a melting point of 83 to 85 °C. With `CNC(=O)c1c(N)n(C2CCCC2)c2nc(C#CC(C)(O)CO)ccc2c1=O` (centres undefined), the melting point stood at 210 °C.

In turn, `CCCCCCCCCCCCOc1ccc(C2SCCCS2)cc1OCCCCCCCCCCCC` returned a melting point of 73 to 75 °C.

The molecule `COC(=O)C(CC(N)C(=O)O)CC(N)N1C=CC=CC1` (centres undefined) yielded a melting point of 240 to 242 °C.

The molecule `CS(=O)(=O)c1nc(Cl)c(Cc2ccccc2)c(N2CCCC2)n1` displayed a melting point of 136 to 138 °C. `CC(=O)NC(=S)NCC1CC2c3cccc4c3c(cn4C)CC2N(C)C1` (centres undefined): the melting point was 195 to 197 °C. Turning to `Cc1cc(C)c(Nc2nc(C)ccc2S(=O)(=O)c2ccc(OCc3csc(C)n3)cc2)c(C)c1`, the melting point was 200 to 201 °C. `CC(C)c1cccc(C(C)C)c1NC(=O)CS(=O)(=O)Nc1c(C(C)C)cccc1C(C)C` registered a melting point of 202 to 205 °C.

`CCNC(=O)n1nc(Oc2c(Cl)cc(C(F)(F)F)cc2Cl)cc1CC` had a melting point of 86 to 89 °C. For the molecule `Nc1cc(Oc2ccc(NC(=O)Nc3ccc(Cl)c(C(F)(F)F)c3)cc2)ncn1`, the melting point fell in the range of 197 to 198 °C. To `CCC(CC)Sc1cc2c(cc1Cl)N=C(CCl)NS2(=O)=O` belongs 213 to 214 °C; to `Cc1noc(C)c1Cn1cc(N2C(=O)CN(CCOc3ccccc3)C2=O)cn1`, 117 to 118 °C. The molecule `COc1cc(C(=O)OC(C)(C)C)ccc1Cn1cc(CC(C)C(=O)O)c2ccc(C(=O)NCC3CCCC3)cc21` (centres undefined) showed a melting point of 195 to 197 °C. `COc1ccc(Cn2c(=O)[nH]c3cc(Cl)ccc3c2=O)cc1`: the melting point fell in the range of 254 to 256 °C. Take `COC(=O)c1ccc(NC(C)=O)c(CO)c1`: the melting point was 60 °C. The molecule `O=c1[nH]c2ncc(-c3ccc(O)cc3)nc2n1CCO` came in with a melting point of 308 to 310 °C.

As to `CCCC(O)c1cnc2nc(C)c(OCC)cc2c1Nc1ccc(OC)cc1` (centres undefined), the melting point was in the range of 120 to 124 °C. In turn, `Cc1cc(O)ccc1N1CCc2c1c1cccc(C)c1[nH]c2=O` showed a melting point of 244 to 246 °C. In turn, `COc1cc(N=c2scc(-c3ccc(Cl)c(S(=O)(=O)N(C)C)c3)n2C)cc(OC)c1OC` returned a melting point of 119 to 122 °C.

Consider `Cc1cc(C)c(S(=O)(=O)Nc2cccnc2Nc2ccccc2)c(C)c1`, for which the melting point is 140 to 142 °C. Regarding `COC(=O)C(C(=O)OC)c1cccc2c1NC(=O)C2`, the melting point was in the range of 161 to 162 °C.

In the case of `CC(C)(C)c1ccc(/C=N/OCc2ccc(C(=O)O)c(Br)c2)cc1`, the melting point is 162 to 163 °C. The value for `CC(C)c1cc(C(=O)Nc2ccc(C(=O)O)o2)oc1C(C)C` was 169 to 171 °C; that for `COC(=O)c1c(C)nc(C)c(C(=O)Cl)c1-c1ccccc1[N+](=O)[O-]` was 96 to 98 °C; that for `Cn1cc(C2=C(c3cn(C)c4cc(CC#N)ccc34)C(=O)NC2=O)c2ccccc21` was 225 to 226 °C. In turn, `COc1ccc2ccc(N3C(=O)c4ccccc4C3OCC(=O)N3CCOCC3)nc2n1` (centres undefined) had a melting point of 192 °C. Regarding `CC(=NNCCCC(C)C)C(=O)O`, the melting point lay within 118 to 125 °C. To `CCNC1CN(c2cc3c(cc2F)c(=O)c(C(=O)O)cn3C2CC2)C1` belongs 220 to 224 °C; to `Cc1nnsc1C(=O)NS(C)(=O)=O`, 187 °C; to `Cc1nn(-c2ccc(F)cc2)cc1C(=O)N(CCCC(=O)O)c1ccc(OCC(C)(C)C)c(C#N)c1`, 178 to 180 °C. `Cc1ccc(Cl)cc1N1CN(Cc2ccccc2)CN(Cc2ccccc2)C1=S` had a melting point of 202 to 203 °C. The value for `CC(C)n1nc(-c2c(-c3ccccc3)nn3ccc(NC(=O)c4ccccc4)cc23)ccc1=O` was 266 to 267 °C; that for `Nc1c(F)cc(I)cc1Cl` was 85 to 87 °C. `COCc1ncc(C(=O)O)s1` yielded a melting point of 131 °C. To `COc1ccc(CNC(=O)C(OC)OC)cc1OC` belongs 60 °C; to `CON=Cc1ncn2c1CN(C)C(=O)c1c(Cl)cccc1-2`, 173 to 174 °C; to `Oc1ccc2sc(-c3ccc(OCCN4CCCC4)cc3)c(Cc3ccc(OC4CCCCC4N4CCCCC4)cc3)c2c1` (centres undefined), 103 to 106 °C. The value for `CC(C)c1cnn2c(NCc3ccccc3)nc(Cl)cc12` was 74 to 75 °C; that for `CCOC(=O)C1CCC(c2ccc(OCC(=O)O)c(Cl)c2Cl)=CC1=O` (centres undefined) was 193 to 195 °C; that for `CCCCOCCOc1ccc(-c2cc(/C=C/C(=O)O)c3c(c2)CCCN3C)cc1` was 128 to 129 °C.

In turn, `CCN(CC)C(=O)Nc1cc(-c2c(-c3cccc(C)c3)nc3cccnn23)ccn1` came in with a melting point of 166 to 167 °C. To `CCOc1cc(-c2cc(C(F)F)n3ncc(C(=O)Nc4cccc(S(N)(=O)=O)c4)c3n2)ccc1C(F)(F)F` belongs 254 °C; to `Cc1nc(O)c2c(n1)N(c1c(C)cc(Br)cc1C)C(=O)C2C` (centres undefined), 271 to 273 °C; to `CC(=O)SC(CC(=O)c1ccccc1Cl)C(=O)O` (centres undefined), 115 to 116 °C. Take `CCSc1nc(-c2ccc(OC)cc2)c(-c2ccc(OC)cc2)s1`: the melting point lay within 73 to 75 °C. For `CNC(=C[N+](=O)[O-])NCCCSc1nccc(NC(N)=NCC(F)(F)F)n1`, the melting point was 189 to 191 °C. The value for `CC(C#N)NC(=O)NC(C)(C)C` (centres undefined) was 161 to 163 °C; that for `COc1ccc2c(c1)c(Cc1cc(=O)n(C3CCCCC3)[nH]1)c(C)n2C(=O)c1ccc(Cl)cc1` was 187 to 188 °C. Take `CC(=O)c1ccc(S(=O)(=O)Nc2ccccn2)cc1`: the melting point was in the range of 198 to 199 °C. The value for `O=C(NCc1ccc(C(=O)O)c(OCc2ccccc2)c1)OCc1ccccc1` was 139 to 140 °C.

Turning to `CCOC(=O)C(Cc1cscn1)NC(C)=O` (racemic), the melting point fell in the range of 58 to 62 °C. Molecule `COc1ccc(-c2cnc(N3Cc4c([nH]c5ccccc5c4=O)C3C3Cc4ccccc4O3)nc2)cc1` (centres undefined) registered a melting point of 301 to 302 °C.

With `CCCCCCCCCCCCCc1c(C(=O)O)sc2c(Br)csc12`, the melting point lay in the range of 88 to 90 °C. To `COc1ccc(Cc2cnc(N[N+](=O)[O-])[nH]c2=O)cn1` belongs 184 to 186 °C; to `CC(=O)SCc1ccc(C#Cc2ccc(C=O)cc2)cc1`, 128 to 129 °C; to `CN(Cc1cccc2c1C(=O)N(C1CCC(=O)NC1=O)C2=O)C(=O)c1ccco1` (centres undefined), 184 to 186 °C. `CCCCCC(=O)Nc1ccc2ccn(CCCCCCCC(=O)OC)c2c1`: the melting point fell in the range of 61 to 63 °C.

`CCOCc1nc2c(N)nc3ccccc3c2n1CCN1C(C)=NOC1(C)C` had a melting point of 204 to 205 °C. `C/C(=N\OCCN1CCOCC1)[C@H]1CC[C@H]2[C@@H]3CC=C4C[C@@H](O)CC[C@]4(C)[C@H]3CC[C@]12C` displayed a melting point of 137 to 138 °C. To `COc1cc2c(cc1O)C(=O)CCCC2` belongs 115 to 116 °C; to `N#Cc1cc(Br)c(I)c(Br)c1`, 170 to 175 °C.

Broadly, the melting point is the temperature, or range, at which the solid turns liquid.

The values are drawn from a melting point compilation (Tetko et al.; mined from patent text by program, amines drawn as free bases though some values may be those of a salt).
